Assay results from patent US20230285347A1, “Preterm Labour with Prostaglandin E2 Receptor Agonists” (IMPERIAL COLLEGE INNOVATIONS LIMITED, priority 2020, published 2023).

What was measured:
EP2 [1] = biological target: T1, EP2 (Homo sapiens, UniProt P43116); assay: Intracellular calcium response in primary myometrial cells; format: cell-based; conditions: PGN9856i 100 nM, FIG. 6
T1 construct: primary human myocytes cultured from term pregnant, non-labouring, myometrium; endogenous in cells; host or cells: primary human myometrial cells (myocytes) cultured from pregnant myometrium
T1 sequence (P43116 whole entry): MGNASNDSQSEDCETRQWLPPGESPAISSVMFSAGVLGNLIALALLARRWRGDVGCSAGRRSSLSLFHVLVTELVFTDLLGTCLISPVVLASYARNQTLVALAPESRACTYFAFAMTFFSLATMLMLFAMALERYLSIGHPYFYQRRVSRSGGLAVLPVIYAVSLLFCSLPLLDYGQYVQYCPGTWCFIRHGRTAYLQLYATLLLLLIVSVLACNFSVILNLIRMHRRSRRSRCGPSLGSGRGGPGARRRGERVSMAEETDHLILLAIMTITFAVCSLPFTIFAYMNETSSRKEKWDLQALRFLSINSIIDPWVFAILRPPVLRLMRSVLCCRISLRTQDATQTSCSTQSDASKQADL
Description: One-way ANOVA with Dunnet's multiple comparison post-hoc test: **p<0.01, and (B) calcium intensity traces over time from representative cells from (A). PGN9856i is unable to elicit intracellular calcium release in primary myometrial cells.
In the myometrium EP2 is an important regulator of parturition. To assess if PGN9856i, butaprost and AH13205 induce similar second messenger profiles in the myometrium as HEK 293 cells, primary human myocytes cultured from term pregnant, non-labouring, myometrium, were treated with each ligand and intracellular cAMP, calcium and PGE2 release was measured.
Myometrial tissue was acquired at St. Mary's hospital, Queen Charlotte and Chelsea hospital and Charing Cross hospital, London. Tissue was obtained from women provided with informed written consent with the approval from the Riverside Research Ethics Committee (RREC 3357, 1997-5089, 19/LO/1657) and experiments were carried out under the committee's guidelines and recommendations. Tissues were obtained from term (38+0-40 weeks gestation) pregnant women undergoing elective caesarean from the upper margin of the incision made at the lower segment of the uterus, before or after the onset of labor. Tissues taken from women in early labour (<3 cm cervical dilation) or late labour (>3 cm cervical dilation) with/without induction with syntocinon, an oxytocin analogue. […]

EP2 [2] = biological target: T1, EP2; assay: COX-2 protein by western blot in myometrial cells from different labouring groups; format: cell-based; conditions: butaprost 10 μM, 6 hours
Method: L=non-labouring, L+E=early stage spontaneous labour, L+L=late stage spontaneous labour, L+SE=early stage induced labour, L+SL=late stage induced labour. (A) COX-2 protein (70 kB) determined by western blot and normalised to GAPDH protein (38 kB) in different labouring groups following 6 hour butaprost (10 μM) stimulation. Data shown as mean±SEM, n=5. Groups compared using one-way ANOVA with Dunnett's multiple comparison post-hoc test: *p<0.05. (B) Representative western blot for FIG. 9A.
Myometrial cells taken from women in different labouring groups were treated for 6-hours with butaprost. Confluent myometrial cells were lysed in RIPA buffer containing 1% Triton x-100, 1% Sodium deoxycholate, 0.1% SDS, 150 mM NaCl, 10 mM Tris, 1 mM EDTA plus 1 mM sodium orthovanadate and one Pierce EDTA-Free protease inhibitor mini tablet. 20-40 μg of lysate as determined via Bradford assay plus Laemmli buffer (0.5M pH 6.8 Tris, 10% SDS, 1% Bromophenol blue, 2% B-ME, 20% Glycerol) were separated with 1×SDS running buffer at 140V on SDS-PAGE gels polymerized with TEMED and ammonium persulfate: separating gel (40% poly, 1M pH 8.8 Tris, 10% SDS), […] (40% poly, 1M Tris (pH 6.8), 10% SDS). Proteins were transferred onto nitrocellulose membranes before blocking in 5% Milk TBS-T for 30 minutes and incubated overnight at 4° C. with primary antibody and blocking buffer (1:1000). Membranes were then incubated in TBS-T with appropriate secondary antibody for 1-3 hours (1:2000) before signal detection using HRP substrate and chemiluminescent imager (ImageQuant LAS 4000).

| SMILES | activation of calcium pathway (EP2 [1]) | agonist-induced COX-2 in early stage labouring groups (EP2 [2]; all early stage labouring groups) | agonist-induced COX-2 increase in late stage labouring groups (EP2 [2]; either late stage labouring group) | agonist-induced increases in COX-2 across groups (EP2 [2]; non-labouring and labouring groups, normalised to GAPDH) |
| --- | --- | --- | --- | --- |
| CC(C)OC(=O)COc1cccc(NC(=O)c2cc(-c3cccc(F)c3)ccc2F)c1 [PGN9856i, propan-2-yl 2-(3-{3′,4-difluoro-[1,1′-biphenyl]-3-amido}phenoxy)acetate] | unable to activate calcium | – | – | – |
| CCCC1([C@H](O)C/C=C/[C@H]2[C@H](O)CC(=O)[C@@H]2CCCCCCC(=O)OC)CCC1 [butaprost] | – | significant increase in all early stage labouring groups | not apparent in either late stage labouring group | maintained across non-labouring and labouring groups |
